Reference: patent US20260274857A1, “CRYSTAL OF DIHYDROPYRIDINONE DERIVATIVE OR SOLVATE THEREOF” (Shionogi & Co., Ltd., priority 2022, published 2026)
Blank lines part the entries; values can stand above or below the compound they belong to.

Experiments:
[1] = Solid stability test: storage stability (amount of analogous substance by HPLC, appearance); format: physicochemical
Procedure: For the solid stability of the crystal of the compound represented by Formula (I) obtained in Example 1 and the crystal of the compound represented by Formula (II) obtained in Example 16, the chemical stability under temperature, temperature and humidity conditions, and light irradiation was evaluated. The proportion (%) of the analogous substance produced by an HPLC method and the change in appearance were evaluated.
About 10 mg of the crystal was accurately weighed in a 2 mL glass container with a polyethylene stopper. After the glass container was closed, the glass container was stored at 40° C. or 60° C. for 2 weeks, 1 month, 2 months, 3 months, or 6 months. A sample stored at 40° C. is referred to as a 40° C. hermetically sealed product, and a sample stored at 60° C. is referred to as a 60° C. hermetically sealed product. In a state where the glass container was opened, the glass container was stored at a relative humidity of 75±5% at 40° C. or a relative humidity of 89±5% for 2 weeks, 1 month, 2 months, 3 months or 6 months, or in the presence of silica gel at 40° C. for 1 month, 2 months, 3 months or 6 months. A sample stored at 40° C. and a relative humidity of 75±5% or 89±5% is referred to as a 40° C. and 75% relative humidity (also referred to as 40±2° C./75±5% RH) or 40° C. and 89% relative humidity (also referred to as 40±2° C./89% RH) stored product, and a sample stored in the presence of silica gel at 40° C. is referred to as a 40° C. stored product. The −40° C. hermetically sealed product was used as a standard product.
The amount of the analogous substance was measured by an area percentage method by the HPLC method under the following conditions.
HPLC Conditions 1 were used for the crystal and amorphous substance of the compound represented by Formula (I) obtained in Example 1, and HPLC conditions 2 were used for the crystal of the compound represented by Formula (II) obtained in Example 16.
• Detector: ultraviolet absorptiometer (measurement wavelength: 260 nm) • Column: YMC-Triart C18 ExRS, S-1.9 μm, 3.0×100 mm • Column temperature: constant temperature at near 40° C. • Mobile phase A: 0.1% formic acid aqueous solution • Mobile phase B: acetonitrile • Flow rate: about 0.6 mL/min • Injection amount: 3 μL • Sample cooler temperature: about 6° C. • Feed of mobile phase: The mixing ratio of mobile phase A and mobile phase B was changed as shown in Table 18 to control concentration gradient.
Column: Cortecs (2.7 μm 3.0×100 mm)
Column temperature: 40° C.
UV detection wavelength: 254 nm

[2] = Moisture adsorption/desorption isotherm measurement (DVS); format: physicochemical
From the text: The moisture adsorption/desorption isotherm measurement is a measurement method for measuring the adsorption and desorption behavior of moisture by measuring a weight change in a solid as a measurement target under each relative humidity condition.
As a basic measurement method, based on the dry weight at 0% RH (relative humidity 0%), the relative humidity is increased every 5% or 10%, and after the weight is stabilized at each relative humidity, the amount of adsorbed water can be determined from the weight increase from the reference value. Similarly, the desorption amount of water can be measured by decreasing the relative humidity every 5% or 10% from 100% RH or 95% RH.
By plotting the value of the weight change at each relative humidity, an adsorption/desorption isotherm can be obtained.
Sorption and desorption of adhesion water and crystal water are affected by particle size, crystallinity, crystal habit, and the like, so that the measurement results may slightly change.
The crystals and amorphous substances obtained in each Example were weighed in an aluminum pan, and allowed to stand at 25° C. and a relative humidity of 0%. The measurement was started after the compound was sufficiently dried and the weight was stabilized, and the weight when the relative humidity changed from 0% to 95% by 5% was recorded. Next, the weight when the relative humidity changed from 95% to 0% by 5% was recorded.
Device: DVS Advantage manufactured by Surface Measurement Systems

[3] = 40° C. Relative humidity 75%, 2 months
[4] = 40° C. hermetically sealed, 1 month
[5] = 40° C. hermetically sealed, 2 months
[6] = 40° C. hermetically sealed, 2 weeks
[7] = 60° C. hermetically sealed, 1 month
[8] = 60° C. hermetically sealed, 2 weeks
[9] = (Standard product) −40° C. hermetically sealed, 1 month
[10] = (Standard product) −40° C. hermetically sealed, 2 months

- Amount (%) of total analogous substance [1, 3]: 0.68%
- Amount (%) of total analogous substance [1, 4]: 0.65%
- Amount (%) of total analogous substance [1, 5]: 0.66%
- Amount (%) of total analogous substance [1, 6]: 0.64%
- Amount (%) of total analogous substance [1, 7]: 0.85%
- Amount (%) of total analogous substance [1, 8]: 0.76%
- Amount (%) of total analogous substance [1, 9]: 0.61%
- Amount (%) of total analogous substance [1, 10]: 0.62%
Compound: CS(=O)(=O)CC(=O)Nc1c2c(nn1CCCOC(F)(F)F)CC1(CCOc3cc(OCC(F)(F)F)ccc31)NC2=O (centres unmarked) [listing 1 of 2 here]

- Amount (%) of total analogous substance [1, 3]: 0.27%
- Amount (%) of total analogous substance [1, 4]: 0.22%
- Amount (%) of total analogous substance [1, 5]: 0.23%
- Amount (%) of total analogous substance [1, 6]: 0.22%
- Amount (%) of total analogous substance [1, 7]: 0.24%
- Amount (%) of total analogous substance [1, 8]: 0.23%
- Amount (%) of total analogous substance [1, 9]: 0.22%
- Amount (%) of total analogous substance [1, 10]: 0.22%
Compound: Cc1ccc(-n2nc3c(c2NC(=O)CS(C)(=O)=O)C(=O)NC2(CCOc4cc(F)cc(F)c42)C3)nc1 (centres unmarked)

- Moisture adsorption amount (%) ([2]; relative humidity 0.0%): 0.001%
- Moisture desorption amount (%) ([2]; relative humidity 0.0%): −0.004%
- Moisture adsorption amount (%) ([2]; relative humidity 5.0%): 0.242%
- Moisture desorption amount (%) ([2]; relative humidity 5.0%): 0.453%
- Moisture adsorption amount (%) ([2]; relative humidity 10.0%): 0.353%
- Moisture desorption amount (%) ([2]; relative humidity 10.0%): 0.715%
- Moisture adsorption amount (%) ([2]; relative humidity 15.0%): 0.457%
- Moisture desorption amount (%) ([2]; relative humidity 15.0%): 0.916%
- Moisture adsorption amount (%) ([2]; relative humidity 20.0%): 0.556%
- Moisture desorption amount (%) ([2]; relative humidity 20.0%): 1.067%
- Moisture adsorption amount (%) ([2]; relative humidity 25.0%): 0.651%
- Moisture desorption amount (%) ([2]; relative humidity 25.0%): 1.194%
- Moisture adsorption amount (%) ([2]; relative humidity 30.0%): 0.741%
- Moisture desorption amount (%) ([2]; relative humidity 30.0%): 1.311%
- Moisture adsorption amount (%) ([2]; relative humidity 35.0%): 0.831%
- Moisture desorption amount (%) ([2]; relative humidity 35.0%): 1.412%
- Moisture adsorption amount (%) ([2]; relative humidity 40.0%): 0.922%
- Moisture desorption amount (%) ([2]; relative humidity 40.0%): 1.510%
- Moisture adsorption amount (%) ([2]; relative humidity 45.0%): 1.003%
- Moisture desorption amount (%) ([2]; relative humidity 45.0%): 1.601%
- Moisture adsorption amount (%) ([2]; relative humidity 50.0%): 1.096%
- Moisture desorption amount (%) ([2]; relative humidity 50.0%): 1.688%
- Moisture adsorption amount (%) ([2]; relative humidity 55.0%): 1.186%
- Moisture desorption amount (%) ([2]; relative humidity 55.0%): 1.776%
- Moisture adsorption amount (%) ([2]; relative humidity 60.0%): 1.285%
- Moisture desorption amount (%) ([2]; relative humidity 60.0%): 1.870%
- Moisture adsorption amount (%) ([2]; relative humidity 65.0%): 1.382%
- Moisture desorption amount (%) ([2]; relative humidity 65.0%): 1.964%
- Moisture adsorption amount (%) ([2]; relative humidity 70.0%): 1.498%
- Moisture desorption amount (%) ([2]; relative humidity 70.0%): 2.062%
- Moisture adsorption amount (%) ([2]; relative humidity 75.0%): 1.612%
- Moisture desorption amount (%) ([2]; relative humidity 75.0%): 2.166%
- Moisture adsorption amount (%) ([2]; relative humidity 80.0%): 1.744%
- Moisture desorption amount (%) ([2]; relative humidity 80.0%): 2.278%
- Moisture adsorption amount (%) ([2]; relative humidity 85.0%): 1.915%
- Moisture desorption amount (%) ([2]; relative humidity 85.0%): 2.398%
- Moisture adsorption amount (%) ([2]; relative humidity 90.0%): 2.168%
- Moisture desorption amount (%) ([2]; relative humidity 90.0%): 2.522%
- Moisture adsorption amount (%) ([2]; relative humidity 95.0%): 2.597%
- Moisture desorption amount (%) ([2]; relative humidity 95.0%): 2.597%
Compound: CS(=O)(=O)CC(=O)Nc1c2c(nn1CCCOC(F)(F)F)CC1(CCOc3cc(OCC(F)(F)F)ccc31)NC2=O (centres unmarked) [listing 2 of 2 here]
